In patent US9131719B2, “Use of certain neoflavonoids for intensifying and/or producing a sensory impression of sweetness” (SYMRISE AG, priority 2011, dated 2015):

Experiments:
Format in all cases: in vivo
[1] = system: impression of sweetness of a 5 wt % sucrose solution; assay: Intensification of the impression of sweetness of a sugar solution, assessed by a panel of experts; conditions: for % intensification of the impression of sweetness: calculated from mean values with vs without test substance; for Impression of sweetness (1-10) with: scale 1 [not sweet] to 10 [extremely sweet]; for sweetness intensifying action (in words): residue at position C5 instead of C7, compared with compounds to be used according to the invention
Procedure: For quantifying the intensification of the impression of sweetness, the sweetness of a 5 wt % sucrose solution (consisting of 5 wt % sucrose in water) and of a sample that consisted of water, 5 wt % sucrose and a specified amount (i.e. that given below in each case) of test substance was determined by a panel of experts. The assessment was based on a scale from 1 [not sweet] to 10 [extremely sweet]. The intensification of the impression of sweetness (in %) was calculated from the respective mean values of the assessments of the sucrose solution and of the respective sample to be investigated containing the test substance. The test substances used were in each case a racemic mixture of the following compounds to be used according to the invention. […]

[2] = system: bitterness of a solution containing 100 ppm naringin; assay: Reduction of bitterness of a solution of bitter substance (naringin), assessed by a panel of experts; conditions: 25 ppm test substance
From the text: (§1) To quantify the reduction (i.e. the masking or decrease) of the impression of bitterness in a sample, the bitterness of a solution containing 500 ppm caffeine or 100 ppm naringin was compared by a panel of experts, in each case against a sample that contained 500 ppm caffeine or 100 ppm naringin and additionally the amount stated in each case of a substance to be assessed (with respect to capacity for reducing bitterness) (assessment scale: 1 [not bitter] through 10 [extremely bitter]). Evaluation, i.e. calculation of the reduction (in %) of the impression of bitterness, was based in each case on the mean values of the assessment of the panel of experts.

[3] = system: bitterness of a solution containing 500 ppm caffeine; assay: Reduction of bitterness of a solution of bitter substance (caffeine), assessed by a panel of experts; conditions: 50 ppm test substance
From the text: as §1

[4] = 50 ppm test substance in 5 wt % sucrose solution
[5] = 50 ppm test substance in water with 5 wt % sucrose
[6] = scale 1 [not bitter] through 10 [extremely bitter]

COc1cc([C@@H]2CC(=O)Oc3cc(O)cc(OC)c32)ccc1O [(A) + (B), (4S)-7-Hydroxy-4-(4-hydroxy-3-methoxyphenyl)-5-methoxy-chroman-2-one (A) and (4R)-7-hydroxy-4-(4-hydroxy-3-methoxyphenyl)-5-methoxy-chroman-2-one (B)]
% intensification of the impression of sweetness [1, 4]: 8% (p < 0.5)
Impression of sweetness (1-10) with [1, 5]: 5.8 ± 1.4

COc1cc([C@H]2CC(=O)Oc3cc(O)cc(OC)c32)ccc1O [(B), (4R)-7-hydroxy-4-(4-hydroxy-3-methoxyphenyl)-5-methoxy-chroman-2-one]
sweetness intensifying action (in words) [1]: much lower sweetness intensifying action

COc1cc(OC)c2c(c1)OC(=O)C[C@H]2c1ccc(O)c(OC)c1 [(17) + (18), (4S)-4-(4-Hydroxy-3-methoxyphenyl)-5,7-dimethoxy-chroman-2-one (17) and (4R)-4-(4-hydroxy-3-methoxyphenyl)-5,7-dimethoxy-chroman-2-one (18)]
% reduction of the impression of bitterness ([2]; calculated from mean values): 9.9%
Impression of bitterness (1-10) with [2, 6]: 4.8 ± 2.5
% intensification of the impression of sweetness [1, 4]: 37% (p < 0.002)
Impression of sweetness (1-10) with [1, 5]: 7.1 ± 1.8

COc1cc(O)c2c(c1)OC(=O)C[C@H]2c1ccc(O)c(OC)c1 [(23) + (24), (4S)-5-Hydroxy-4-(4-hydroxy-3-methoxyphenyl)-7-methoxy-chroman-2-one (23) and (4R)-5-hydroxy-4-(4-hydroxy-3-methoxyphenyl)-7-methoxy-chroman-2-one (24)]
% intensification of the impression of sweetness [1, 4]: 47%
Impression of sweetness (1-10) with [1, 5]: 7.6 ± 1.5

(4S)-4-(4-Hydroxyphenyl)-7-methoxy-chroman-2-one (19) and (4R)-4-(4-hydroxyphenyl)-7-methoxy-chroman-2-one (20) [(19) + (20)]
% intensification of the impression of sweetness [1, 4]: 14% (p < 0.09)
Impression of sweetness (1-10) with [1, 5]: 5.4 ± 1.1
% reduction of the impression of bitterness ([3]; calculated from mean values): 9.9%
Impression of bitterness (1-10) with [3, 6]: 3.6 ± 1.5

COc1cc([C@@H]2CC(=O)Oc3cc(O)cc(OC)c32)ccc1O [(A), (4S)-7-Hydroxy-4-(4-hydroxy-3-methoxyphenyl)-5-methoxy-chroman-2-one]
sweetness intensifying action (in words) [1]: much lower sweetness intensifying action

CCCOc1ccc2c(c1)OC(=O)C[C@H]2c1ccc(O)cc1 [(11) + (12), (4S)-4-(4-Hydroxyphenyl)-7-propoxy-chroman-2-one (11) and (4R)-4-(4-hydroxyphenyl)-7-propoxy-chroman-2-one (12)]
% intensification of the impression of sweetness ([1]; 25 ppm test substance in 5 wt % sucrose solution): 14% (p < 0.09)
Impression of sweetness (1-10) with ([1]; 25 ppm test substance in water with 5 wt % sucrose): 6.6 ± 1.5

(4S)-7-Methoxy-4-(4-methoxyphenyl)chroman-2-one (1) and (4R)-7-methoxy-4-(4-methoxyphenyl)chroman-2-one (2) [(1) + (2)]
% intensification of the impression of sweetness [1, 4]: 12% (p < 0.08)
Impression of sweetness (1-10) with [1, 5]: 5.4 ± 0.9
